# Data from patent publication US20050250801A1, “Method of treating cancer with azaspirane compositions” (priority 2003, published 2005).
# Where two headings read alike, the source gives them in different places.
# What was measured:
# [1] = system: chorioallantoic membrane (CAM); test: Anti-angiogenesis CAM assay; type: in vivo, White Leghorn eggs; settings: 48 hour exposure, ten eggs
# Experimental: The dosing was effected by pipetting 40 μl of the indicated solution onto a 13 mm round Thermanox® coverslip and allowing it to air dry. After the material appeared dry, the coverslip was placed onto the chorioallantoic membrane (CAM) of each egg insuring contact of the dried test article with the CAM. After dosing, the eggs were returned to the incubator for approximately 48 hours. Following the 48 hour exposure period, the eggs were removed from the incubator, observed for viability, and the exposed area under the coverslip was examined for loss of vasculature.
# HCC-2998 = test: NCI in vitro SRB assay, Colon Cancer; type: cell-based; settings: for CC50 / GI50: Homo sapiens
# Experimental: (§1) An in vitro assay which tested the ability of N,N,-diethyl-8,8-dipropyl-2-azaspiro[4,5]decane-2-propanamine dimaleate (Compound 1) to inhibit the growth of known cancer cell lines was performed by the National Cancer Institute in accordance with standard procedures. See: Lin, Z. X., Hoult, J. R., and Raman, A. Sulphorhodamine B assay for measuring proliferation of a pigmented melanocyte cell line and its application to the evaluation of crude drugs used in the treatment of vitiligo. J Ethnopharmacol. 66: 141-150, 1999. Briefly, selected tumor cell lines were cultured in media containing five different concentrations of Compound 1. After 48 hours of continuous exposure, a sulforhodamine B (SRB) assay was used to estimate cell viability or growth via optical measurements.
# (§2) From the measurements, the following values were determined: 1) the concentration of Compound 1 at which a tumor cell growth inhibition of 50% (relative to control) occurs (GI50), 2) the concentration of Compound 1 at which no growth occurs (total growth inhibition, TGI), and 3) the concentration of Compound 1 at which the […] (LC 50). […] FIG. 6 illustrates, graphically, tumor cell growth as a function of Compound 1 concentration of the scanned tumor cell lines.
# KM12 = test: NCI in vitro SRB assay, Colon Cancer; type: cell-based; settings: for CC50 / GI50: Homo sapiens
# Experimental: as §1, §2
# HCT-15 = test: NCI in vitro SRB assay, Colon Cancer; type: cell-based; settings: for CC50 / GI50: Homo sapiens
# Experimental: as §1, §2
# SW-620 = test: NCI in vitro SRB assay, Colon Cancer; type: cell-based; settings: for CC50 / GI50: Homo sapiens
# Experimental: as §1, §2
# T84 cells = test: Inhibition of T84 colon carcinoma cell proliferation (WST-1, Example 1); type: cell-based; settings: Homo sapiens, 24 hours incubation
# Experimental: The effect of N,N,-diethyl-8,8-dipropyl-2-azaspiro[4,5]decane-2-propanamine dimaleate (Compound 1) on proliferation of human colon carcinoma cells T84 and CaCo-2 was evaluated in the following manner. Cell proliferation was measured by WST-1 dye conversion to Formazan assay using the proliferation kit from BioVision, CA. The procedure used was essentially as described in the manufacture's instructions. Briefly, cells were grown for 7 days until they formed semi-confluent monolayers. On day 7, cells were trypsinized and resuspended in 96-well plates at a concentration of approximately 40,000 cells/well and allowed to grow for 24 hours at 37° C.
# Subsequently, fresh media containing increasing concentrations of Compound 1, as indicated in the FIG. 1, were added and assay plates were further incubated for an additional period of 24 hours. A solution of 5 μl of WST-1 dye per well was added and plates were read after 4 hours at 440 and 600 nm using an ELISA plate reader. The absorbance at 440 minus that at 600 nm is directly proportion to the number of proliferating cells. All samples were measured in triplicate and results were expressed as an average of three determinations.
# CaCo-2 cells = test: Induction of apoptosis, DNA fragmentation analysis, CaCo-2; type: cell-based, human; settings: 12 hours treatment
# Experimental: T84, CaCo-2 and HUVEC cells, respectively, were grown in 100 mm dishes for 7-9 days, culture media for HUVEC was EGM-2 (Clonetics, BioWhitaker Co.), until they reached semi-confluency. Cell monolayers were then treated for 12 hours (CaCo-2 and T84) and 16 hours (HUVEC), respectively, at the indicated concentrations of N,N,-diethyl-8,8-dipropyl-2-azaspiro[4,5]decane-2-propanamine dimaleate (Compound 1) in culture media. Cells were collected by trypsinization and the apoptotic DNA was isolated from these cells following the instructions of the DNA fragmentation analysis kit (Boehringer Mannheim Corp., Indianapolis, Ind.). The apoptotic DNA was evaluated using 1.5% agarose gel electrophoresis followed by staining with ethidium bromide. M denotes the lane containing molecular weight markers of DNA.
# [2] = HCC-2998, Log10 conc -4.0 Moles/L
# [3] = HCC-2998, Log10 conc -5.0 Moles/L
# [4] = HCC-2998, Log10 conc -6.0 Moles/L
# [5] = HCC-2998, Log10 conc -7.0 Moles/L
# [6] = HCC-2998, Log10 conc -8.0 Moles/L
# [7] = HCT-15, Log10 conc -4.0 Moles/L
# [8] = HCT-15, Log10 conc -5.0 Moles/L
# [9] = HCT-15, Log10 conc -6.0 Moles/L
# [10] = HCT-15, Log10 conc -7.0 Moles/L
# [11] = HCT-15, Log10 conc -8.0 Moles/L
# [12] = SW-620, Log10 conc -4.0 Moles/L
# [13] = SW-620, Log10 conc -5.0 Moles/L
# [14] = SW-620, Log10 conc -6.0 Moles/L
# [15] = SW-620, Log10 conc -7.0 Moles/L
# [16] = SW-620, Log10 conc -8.0 Moles/L
compound,measurement,setting,value
"CCCC1(CCC)CCC2(CCN(CCCN(CC)CC)C2)CC1.O=C(O)/C=C\C(=O)O.O=C(O)/C=C\C(=O)O [Compound 1, N,N,-diethyl-8,8-dipropyl-2-azaspiro[4,5]decane-2-propanamine dimaleate]",Dead Eggs,[1]; Dose per egg 25 μg (0.625 mg/ml),0
same,Dead Eggs,[1]; Dose per egg 50 μg (1.25 mg/ml),0
same,Dead Eggs,[1]; Dose per egg 100 μg,4
same,Dead Eggs,[1]; Dose per egg 200 μg (5 mg/ml),3
same,Dead Eggs,[1]; Dose per egg 400 μg (10 mg/ml),7
same,Log10 TGI,HCC-2998; HCC-2998,−6.62
same,TGI,HCC-2998; HCC-2998,239 nM
same,Mean Optical Densities,HCC-2998; [2],0.036
same,Percent Growth,HCC-2998; [2],−84%
same,Mean Optical Densities,HCC-2998; [3],0.019
same,Percent Growth,HCC-2998; [3],−92%
same,Mean Optical Densities,HCC-2998; [4],0.057
same,Percent Growth,HCC-2998; [4],−74%
same,Mean Optical Densities,HCC-2998; [5],0.303
same,Percent Growth,HCC-2998; [5],45%
same,Mean Optical Densities,HCC-2998; [6],0.338
same,Percent Growth,HCC-2998; [6],64%
same,CC50,"HCC-2998; HCC 2998, read-out: LC50",628 nM
same,CC50,"HCC-2998; HCC 2998, read-out: Log10 LC50 (converted)",631 nM
same,GI50,"HCC-2998; HCC-2998, read-out: GI50",54.9 nM
same,GI50,"HCC-2998; HCC-2998, read-out: Log10 GI50 (converted)",55 nM
same,CC50,"KM12; KM12, read-out: LC50",7130 nM
same,CC50,"KM12; KM12, read-out: Log10 LC50 (converted)",7080 nM
same,GI50,"KM12; KM12, read-out: GI50",1510 nM
same,GI50,"KM12; KM12, read-out: Log10 GI50 (converted)",1510 nM
same,Log10 TGI,KM12; KM12,−5.48
same,TGI,KM12; KM12,3290 nM
same,Mean Optical Densities,"KM12; KM12, Log10 conc -4.0 Moles/L",0.210
same,Percent Growth,"KM12; KM12, Log10 conc -4.0 Moles/L",−52%
same,Mean Optical Densities,"KM12; KM12, Log10 conc -5.0 Moles/L",0.123
same,Percent Growth,"KM12; KM12, Log10 conc -5.0 Moles/L",−72%
same,Mean Optical Densities,"KM12; KM12, Log10 conc -6.0 Moles/L",1.243
same,Percent Growth,"KM12; KM12, Log10 conc -6.0 Moles/L",77%
same,Mean Optical Densities,"KM12; KM12, Log10 conc -7.0 Moles/L",1.402
same,Percent Growth,"KM12; KM12, Log10 conc -7.0 Moles/L",92%
same,Mean Optical Densities,"KM12; KM12, Log10 conc -8.0 Moles/L",1.429
same,Percent Growth,"KM12; KM12, Log10 conc -8.0 Moles/L",94%
same,Log10 TGI,HCT-15; HCT-15,−5.87
same,TGI,HCT-15; HCT-15,1340 nM
same,Mean Optical Densities,HCT-15; [7],−0.026
same,Percent Growth,HCT-15; [7],−100%
same,Mean Optical Densities,HCT-15; [8],−0.027
same,Percent Growth,HCT-15; [8],−100%
same,Mean Optical Densities,HCT-15; [9],0.371
same,Percent Growth,HCT-15; [9],14%
same,Mean Optical Densities,HCT-15; [10],0.819
same,Percent Growth,HCT-15; [10],75%
same,Mean Optical Densities,HCT-15; [11],0.878
same,Percent Growth,HCT-15; [11],83%
same,CC50,"HCT-15; HCT-15, read-out: LC50",3650 nM
same,CC50,"HCT-15; HCT-15, read-out: Log10 LC50 (converted)",3630 nM
same,GI50,"HCT-15; HCT-15, read-out: GI50",261 nM
same,GI50,"HCT-15; HCT-15, read-out: Log10 GI50 (converted)",263 nM
same,CC50,"SW-620; SW-620, read-out: LC50",5170 nM
same,CC50,"SW-620; SW-620, read-out: Log10 LC50 (converted)",5130 nM
same,GI50,"SW-620; SW-620, read-out: GI50",1380 nM
same,GI50,"SW-620; SW-620, read-out: Log10 GI50 (converted)",1380 nM
same,Log10 TGI,SW-620; SW-620,−5.57
same,TGI,SW-620; SW-620,2670 nM
same,Mean Optical Densities,SW-620; [12],−0.016
same,Percent Growth,SW-620; [12],−100%
same,Mean Optical Densities,SW-620; [13],−0.002
same,Percent Growth,SW-620; [13],−100%
same,Mean Optical Densities,SW-620; [14],0.789
same,Percent Growth,SW-620; [14],75%
same,Mean Optical Densities,SW-620; [15],0.948
same,Percent Growth,SW-620; [15],95%
same,Mean Optical Densities,SW-620; [16],0.948
same,Percent Growth,SW-620; [16],95%
same,IC50,T84 cells,625 to 1250 nM
same,DNA ladder formation (apoptosis),CaCo-2 cells,formation of DNA laddering in a dose-dependent manner
